From patent publication US20250144067A1, “PERSONALIZED STARVATION THERAPY FOR CANCER” (Faeth Therapeutics, Inc., priority 2021, published 2025)
Counter-ions that a name gives are not always drawn. Like-named read-outs stand apart in the source and are kept apart here.

What was measured:
[1] = tested on: NCI-H292 lung cancer cells; experiment: FDA drug screening, complete media vs cholesterol-free media without statin (TABLE 1); assay type: cell-based, human
[2] = tested on: NCI-H292 lung cancer cells; experiment: FDA drug screening, complete media vs cholesterol-free media with simvastatin (TABLE 2); assay type: cell-based, human
[3] = Complete minus Cholesterol-free, >0 enhanced anti-cancer activity, about 0 neutral, <0 antagonist
[4] = NCI-H292 cells, cholesterol-free media without statin, FDA drug library screen
[5] = NCI-H292 cells, complete media, FDA drug library screen
[6] = NCI-H292 cells, FDA drug library screen, cholesterol-free media with simvastatin 0.04 μM
[7] = NCI-H292 cells, FDA drug library screen, complete media
[8] = complete media minus cholesterol-free media + simvastatin, >0 enhanced anti-cancer activity, about 0 neutral, <0 antagonist
[9] = Complete minus Cholesterol-free, greater than 0 enhanced anti-cancer activity, about 0 neutral, below 0 antagonists
[10] = NCI-H292 cells in cholesterol-free media without statin
[11] = NCI-H292 cells in complete media
[12] = NCI-H292 cells, cholesterol-free media with simvastatin 0.04 μM, cell growth value in FDA drug screen
[13] = NCI-H292 cells, complete media, cell growth value in FDA drug screen
[14] = complete vs cholesterol-free media, >0 enhanced anti-cancer activity, about 0 neutral, <0 antagonist
[15] = complete media vs cholesterol-free media + simvastatin (0.04 μM), >0 enhanced anti-cancer activity, about 0 neutral, <0 antagonist
[16] = complete media minus cholesterol-free media + simvastatin (0.04 μM), >0 enhanced anti-cancer activity, about 0 neutral, <0 antagonist
[17] = Complete minus Cholesterol-free, […]
[18] = complete media vs cholesterol-free media + simvastatin (0.04 μM), […]
[19] = NCI-H292 cells, cholesterol-free media without statin
[20] = NCI-H292 cells, drug in cholesterol-free media with simvastatin 0.04 μM
[21] = NCI-H292 cells, drug in complete media
[22] = complete vs cholesterol-free media, greater than 0 enhanced anti-cancer activity, about 0 neutral, below 0 antagonists
[23] = complete media minus cholesterol-free media + simvastatin, […]
[24] = NCI-H292 cells, cholesterol-free media with simvastatin 0.04 μM, FDA drug library screen (TABLE 2)
[25] = NCI-H292 cells, complete media, FDA drug library screen (TABLE 2)
[26] = complete media minus cholesterol-free media + simvastatin (0.04 μM), […]

CN(C)C(=O)Oc1cccc([N+](C)(C)C)c1.[Br-] [Neostigmine (Bromide)]
Cholesterol-free [1]: 1.008
Complete [1]: 0.8252
Difference [1]: −0.18
Cholesterol-free media + simvastatin (0.04 μM) [2]: 0.9188
Complete Media [2]: 1.066
Difference [2]: 0.15

O=C(c1ccc(F)c(F)c1Nc1ccc(I)cc1F)N1CC(O)([C@@H]2CCCCN2)C1 (racemic) [Cobimetinib (racemate)]
Difference [1, 3]: −0.02
Cholesterol-free [1, 4]: 0.2982
Complete [1, 5]: 0.2751
Cholesterol-free media + simvastatin (0.04 μM) [2, 6]: 0.2662
Complete Media [2, 7]: 0.405
Difference [2, 8]: 0.14

CCN(CC)CCOC(=O)C(c1ccccc1)C1CCCCC1 (centres unmarked) [Drofenine (hydrochloride)]
Difference [1, 9]: −0.55
Cholesterol-free [1, 10]: 1.437
Complete [1, 11]: 0.8908
Cholesterol-free media + simvastatin (0.04 μM) [2, 12]: 1.111
Complete Media [2, 13]: 1.144
Difference [2, 8]: 0.03

C[C@@H]1CCN(C(=O)CC#N)C[C@@H]1N(C)c1ncnc2[nH]ccc12 [Tofacitinib]
Difference [1, 3]: −0.07
Cholesterol-free [1, 4]: 1.303
Complete [1, 5]: 1.238
Cholesterol-free media + simvastatin (0.04 μM) [2, 12]: 1.188
Complete Media [2, 13]: 1.224
Difference [2, 8]: 0.04

NCCS [Cysteamine hydrochloride]
Cholesterol-free [1, 4]: 1.255
Complete [1, 5]: 1.431
Difference [1, 14]: 0.18
Cholesterol-free media + simvastatin (0.04 μM) [2, 6]: 0.9975
Complete Media [2, 7]: 0.86
Difference [2, 15]: −0.14

CCN1CCN(C(=O)N[C@@H](C(=O)N[C@@H]2C(=O)N3[C@@H]2SC(C)(C)[C@@H]3C(=O)[O-])c2ccccc2)C(=O)C1=O.[Na+] [Piperacillin (sodium)]
Difference ([1]; Complete minus Cholesterol-free, greater than 0 enhanced anti-cancer activity, about 0 neutral, below 0 antagonist): −0.14
Cholesterol-free ([1]; NCI-H292 cells, FDA drug library screen, cholesterol-free media without statin): 1.282
Complete [1, 7]: 1.138
Cholesterol-free media + simvastatin (0.04 μM) [2, 6]: 2.325
Difference [2, 16]: −1.15

CN(C)CCc1c[nH]c2ccc(Cn3cncn3)cc12.O=C(O)c1ccccc1 [Rizatriptan (benzoate)]
Difference [1, 17]: 0.02
Cholesterol-free [1, 4]: 0.4266
Complete [1, 5]: 0.447
Cholesterol-free media + simvastatin (0.04 μM) [2, 6]: 1.054
Complete Media [2, 7]: 0.9799
Difference [2, 18]: −0.07

CN(C)CCOCC(=O)NC12CC3CC(CC(C3)C1)C2 [Tromantadine (hydrochloride)]
Difference [1, 3]: −0.20
Cholesterol-free [1, 19]: 0.9414
Complete ([1]; NCI-H292 cells, complete media): 0.7414
Cholesterol-free media + simvastatin (0.04 μM) [2, 20]: 1.251
Complete Media [2, 21]: 1.005
Difference [2, 15]: −0.25

FC(F)(F)c1ccc(CNc2ccc(Cc3c[nH]c4ncc(Cl)cc34)cn2)cn1 [Pexidartinib (hydrochloride)]
Cholesterol-free [1, 19]: 1.204
Complete ([1]; NCI-H292 cells, complete media): 0.7514
Difference [1, 22]: −0.45
Cholesterol-free media + simvastatin (0.04 μM) [2, 6]: 1.136
Complete Media [2, 7]: 1.002
Difference [2, 15]: −0.13

COc1cccc(OC)c1C(=O)N[C@@H]1C(=O)N2[C@@H]1SC(C)(C)[C@@H]2C(=O)O [Methicillin (sodium salt)]
Difference [1, 3]: −0.06
Cholesterol-free [1, 4]: 1.114
Complete [1, 5]: 1.051
Cholesterol-free media + simvastatin (0.04 μM) ([2]; NCI-H292 cells, FDA library drug in cholesterol-free media with simvastatin 0.04 μM): 1.829
Complete Media ([2]; NCI-H292 cells, FDA library drug in complete media): 1.406
Difference [2, 15]: −0.42

CCC1(c2ccccc2)C(=O)NCNC1=O [Primidone]
Difference [1, 9]: −0.48
Cholesterol-free [1, 10]: 1.462
Complete [1, 11]: 0.9788
Cholesterol-free media + simvastatin (0.04 μM) [2, 6]: 0.9863
Complete Media [2, 7]: 0.8914
Difference [2, 15]: −0.09

Oxeladin (citrate)
Difference [1, 17]: −0.55
Cholesterol-free [1, 10]: 1.475
Complete [1, 11]: 0.921
Cholesterol-free media + simvastatin (0.04 μM) [2, 6]: 0.7029
Complete Media [2, 7]: 1.466
Difference [2, 23]: 0.76

CCN(CC)C(=S)SSC(=S)N(CC)CC [Disulfiram]
Difference [1, 3]: −0.02
Cholesterol-free [1, 4]: 0.0139
Complete [1, 5]: −0.001922
Cholesterol-free media + simvastatin (0.04 μM) [2, 6]: 0.005061
Complete Media [2, 7]: −0.0784
Difference [2, 15]: −0.08

O=C(OC[C@H]1O[C@@H](OC(=O)c2cc(O)c(O)c(OC(=O)c3cc(O)c(O)c(O)c3)c2)[C@H](OC(=O)c2cc(O)c(O)c(OC(=O)c3cc(O)c(O)c(O)c3)c2)[C@@H](OC(=O)c2cc(O)c(O)c(OC(=O)c3cc(O)c(O)c(O)c3)c2)[C@@H]1OC(=O)c1cc(O)c(O)c(OC(=O)c2cc(O)c(O)c(O)c2)c1)c1cc(O)c(O)c(OC(=O)c2cc(O)c(O)c(O)c2)c1 [Tannic acid]
Difference [1, 9]: −0.60
Cholesterol-free [1, 10]: 1.391
Complete [1, 11]: 0.7941
Cholesterol-free media + simvastatin (0.04 μM) [2, 6]: 1.824
Complete Media [2, 7]: 2.065
Difference [2, 8]: 0.24

CC(C)c1cc2c(cc1S(=O)(=O)O)[C@@]1(C)CCC[C@@](C)(C(=O)O)[C@@H]1CC2 [Ecabet (sodium)]
Cholesterol-free [1, 19]: 1.17
Complete ([1]; NCI-H292 cells, complete media): 0.8018
Difference [1, 22]: −0.37
Cholesterol-free media + simvastatin (0.04 μM) [2, 20]: 1.124
Complete Media [2, 21]: 0.9102
Difference [2, 15]: −0.21

CCCCCCCC(=O)OCC(COC(=O)CCCCCCC)OC(=O)CCCCCCC [Tricaprilin]
Difference [1, 3]: 0.03
Cholesterol-free [1, 4]: 0.9476
Complete [1, 5]: 0.9746
Cholesterol-free media + simvastatin (0.04 μM) [2, 6]: 1.072
Complete Media [2, 7]: 0.9486
Difference [2, 15]: −0.12

OC[C@@H](O)[C@@H](O)[C@H](O)[C@H](O)CO [D-Mannitol]
Cholesterol-free [1, 4]: 0.8621
Complete [1, 5]: 1.662
Difference [1, 14]: 0.80
Cholesterol-free media + simvastatin (0.04 μM) [2, 6]: 1.033
Complete Media [2, 7]: 1.748
Difference [2, 8]: 0.71

COc1cccc2c1C(=O)c1c(O)c3c(c(O)c1C2=O)C[C@@](O)(C(C)=O)C[C@@H]3O[C@H]1C[C@H](N)[C@H](O)[C@H](C)O1 [Daunorubicin (Hydrochloride)]
Difference [1, 17]: −0.01
Cholesterol-free [1, 4]: 0.01433
Complete [1, 5]: 0.008412
Cholesterol-free media + simvastatin (0.04 μM) [2, 24]: 0.006543
Complete Media [2, 25]: −0.007495
Difference [2, 26]: −0.01

CC(=O)OC[C@H]1O[C@@H]([S-])[C@H](OC(C)=O)[C@@H](OC(C)=O)[C@@H]1OC(C)=O.CCP(CC)CC.[Au+] [Auranofin]
Difference [1, 17]: 0.01
Cholesterol-free [1, 4]: −0.008527
Complete [1, 5]: 0.0049
Cholesterol-free media + simvastatin (0.04 μM) [2, 24]: 0.01251
Complete Media [2, 25]: 0.0008313
Difference [2, 26]: −0.01

CC[C@H](C)[C@@H]1NC(=O)[C@H](Cc2ccc(O)cc2)NC(=O)[C@@H](N)CSSC[C@@H](C(=O)N2CCC[C@H]2C(=O)N[C@@H](CC(C)C)C(=O)NCC(N)=O)NC(=O)[C@H](CC(N)=O)NC(=O)[C@H](CCC(N)=O)NC1=O [Oxytocin]
Cholesterol-free [1, 19]: 1.585
Complete ([1]; NCI-H292 cells, complete media): 1.211
Difference ([1]; complete vs cholesterol-free media, […]): −0.37
Cholesterol-free media + simvastatin (0.04 μM) [2, 6]: 1.057
Complete Media [2, 7]: 0.9051
Difference [2, 18]: −0.15

CC(C)(C)NC(=O)[C@H]1CC[C@H]2[C@@H]3CC[C@H]4NC(=O)C=C[C@]4(C)[C@H]3CC[C@]12C [Finasteride]
Cholesterol-free [1, 19]: 1.209
Complete ([1]; NCI-H292 cells, complete media): 0.7878
Difference [1, 22]: −0.42
Cholesterol-free media + simvastatin (0.04 μM) [2, 12]: 1.571
Complete Media [2, 13]: 1.636
Difference [2, 8]: 0.06

C[C@@H]1CCO[C@H]2Cn3cc(C(=O)NCc4ccc(F)cc4F)c(=O)c(O)c3C(=O)N12 [Dolutegravir]
Difference [1, 3]: −0.20
Cholesterol-free [1, 19]: 0.9033
Complete ([1]; NCI-H292 cells, complete media): 0.7062
Cholesterol-free media + simvastatin (0.04 μM) [2, 24]: 0.5964
Complete Media [2, 25]: 0.5738
Difference [2, 16]: −0.02

COC(=O)CCc1ccc(OCC(O)CNC(C)C)cc1 (centres unmarked) [Esmolol (hydrochloride)]
Cholesterol-free [1, 4]: 0.7243
Complete [1, 5]: 0.9329
Difference [1, 14]: 0.21
Cholesterol-free media + simvastatin (0.04 μM) [2, 6]: 1.21
Complete Media [2, 7]: 1.054
Difference [2, 15]: −0.16

CC(C(=O)O)c1ccc(-c2ccccc2)c(F)c1 (centres unmarked) [Flurbiprofen]
Cholesterol-free [1, 4]: 1.072
Complete [1, 5]: 1.387
Difference [1, 14]: 0.31
Cholesterol-free media + simvastatin (0.04 μM) [2, 20]: 1.217
Complete Media [2, 21]: 1.042
Difference [2, 15]: −0.18

CN(CCOc1ccc(CC2SC(=O)NC2=O)cc1)c1ccccn1 (centres unmarked) [Rosiglitazone]
Difference [1, 3]: −0.21
Cholesterol-free [1, 19]: 1.222
Complete ([1]; NCI-H292 cells, complete media): 1.017
Cholesterol-free media + simvastatin (0.04 μM) [2, 6]: 1.707
Complete Media [2, 7]: 1.955
Difference [2, 8]: 0.25

Nc1nc(=O)c2c([nH]1)NC[C@H](CNc1ccc(C(=O)N[C@@H](CCC(=O)[O-])C(=O)[O-])cc1)N2C=O.[Ca+2] [Levoleucovorin (Calcium)]
Difference [1, 17]: −0.05
Cholesterol-free [1, 4]: 1.535
Complete [1, 5]: 1.487
Cholesterol-free media + simvastatin (0.04 μM) [2, 6]: 1.534
Complete Media [2, 7]: 1.758
Difference [2, 23]: 0.22
